From US5830888A, “Macrocyclic retroviral protease inhibitors” (Monsanto Company, priority 1995, dated 1998)

Target: T1, HIV protease (Human immunodeficiency virus type 1 group M subtype B, UniProt P04585)
T1 construct: HIV protease is diluted in the assay buffer to a final enzyme concentration of 12.3 nanomolar, based on a molecular weight of 10,780
Test: HIV protease enzyme assay (fluorescence, substrate 2-aminobenzoyl-lle-Nle-Phe(p-NO2)-Gin-ArgNH2)
Type: biochemical
Settings: HIV protease 12.3 nanomolar, substrate 80 μM, pH 6.4; for IC50: ambient temperature, read-out: IC50 (inhibiting concentration 50%)
Description: The compounds of the present invention are effective HIV protease inhibitors. […] The calculated IC50 (inhibiting concentration 50%, i.e., the concentration at which the inhibitor compound reduces enzyme activity by 50%) values are shown in Table 1. The enzyme method is described below. The substrate is 2-aminobenzoyl-lle-Nle-Phe(p-NO2)-Gin-ArgNH2. The positive control is MVT-101 [Miller, M. et al, Science, 246, 1149 (1989)]. The assay conditions are as follows:
Assay buffer: 20 mM sodium phosphate, pH 6.4
The above described substrate is dissolved in DMSO, then diluted 10 fold in assay buffer. Final substrate concentration in the assay is 80 μM. HIV protease is diluted in the assay buffer to a final enzyme concentration of 12.3 nanomolar, based on a molecular weight of 10,780.
The final concentration of DMSO is 14% and the final concentration of glycerol is 18%. The test compound is dissolved in DMSO and diluted in DMSO to 10×the test concentration; 10 μL of the enzyme preparation is added, the materials mixed and then the mixture is incubated at ambient temperature for 15 minutes. The enzyme reaction is initiated by the addition of 40 μL of substrate. The increase in fluorescence is monitored at 4 time points (0, 8, 16 and 24 minutes) at ambient temperature. Each assay is carried out in duplicate wells.

IC50 [nM] | inhibition at 10 µM [%] | Structure (SMILES)
570 | – | CC(C)CCN1C[C@@H](O)[C@H](Cc2ccccc2)NC(=O)[C@@H](NC(=O)OCc2ccccc2)CSCCCCCNC1=O [Compound 2]
– | 20 | CC(C)CCN1C[C@@H](O)[C@H](Cc2ccccc2)NC(=O)CCSCCCCCNC1=O [Compound 5]
1600 | – | CC(=O)N[C@H]1CSCCCCCNC(=O)N(CCC(C)C)C[C@@H](O)[C@H](Cc2ccccc2)NC1=O [Compound 4]
– | 21 | CC(C)CCN1C[C@@H](O)[C@H](Cc2ccccc2)NC(=O)CCS(=O)(=O)CCCCCNC1=O [Compound 17, 1-Thia-5,9,11-Triazacyclohexadecane, 7-Hydroxy-9-(3-Methylbutyl)-4,10-Dioxo-6-(Phenylmethyl)-, 1,1-Dioxide, Cis-]
1730 | – | CC(C)CCN1C[C@@H](O)[C@H](Cc2ccccc2)NC(=O)[C@@H](NC(=O)OCc2ccccc2)CSCCCCCCNC1=O [Compound 3]
340 | – | CC(C)CCN1C[C@@H](O)[C@H](Cc2ccccc2)NC(=O)[C@@H](NC(=O)OCc2ccccc2)CSCCCCNC1=O [Compound 1]

Further lines, the molecule ahead of its results:

Structure (SMILES) | IC50 [nM] | inhibition at 10 µM [%]
CC(C)CCN1C[C@@H](O)[C@H](Cc2ccccc2)NC(=O)[C@@H](NC(=O)OCc2ccccc2)CSCCCC(C)(C)NC1=O [Compound 8] | 140 | –
CC(C)CCN1C[C@@H](O)[C@H](Cc2ccccc2)NC(=O)[C@@H](NC(=O)OCc2ccccc2)C(C)(C)SCCCCCNC1=O [Compound 7] | 1260 | –
CC(C)CCN1C[C@@H](O)[C@H](Cc2ccccc2)NC(=O)[C@@H](NC(=O)OCc2ccccc2)CC(=O)NCCCNC1=O [Compound 20, Carbamic Acid, [5-Hydroxy-3-(3-Methylbutyl)-2,8,11-Trioxo-5-(Phenylmethyl)-1,3,7,12-Tetraazacyclopentadec-9-YL]-, Phenylmethylester, (98-Trans)-] | – | 16
CC(C)CCN1C[C@@H](O)[C@H](Cc2ccccc2)NC(=O)[C@@H](NC(=O)OCc2ccccc2)CSCCCCCCC1=O [Compound 10] | – | 47
CC(C)CCN1C[C@@H](O)[C@H](Cc2ccccc2)NC(=O)[C@@H](NC(=O)OCc2ccccc2)CSCCCCC(C)(C)NC1=O [Compound 6] | 220 | –
CC(C)CCN1C[C@@H](O)[C@H](Cc2ccccc2)NC(=O)[C@@H](NC(=O)c2ccc3ccccc3n2)CSCCCCCNC1=O [Compound 9] | 510 | –
